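Exposure lasted 48 hours, with cells grown in 96-well plates and compounds tested at five concentrations. The concentration for full growth arrest is given as TGI.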

Some test systems named below: SW-620 colon; HCT-116 colon; SN12C renal; UACC-62 melanoma; NCI/ADR-RES ovarian; SR leukemia; OVCAR-4 ovarian; SNB-75 CNS; DU-145 prostate; UACC-257 melanoma; SK-OV-3 ovarian; ACHN renal.
Test in all cases: NCI anticancer screen, dose series, 48 h

`CC(=O)c1nc2ccccc2n1C(C)C(=O)c1ccccc1` (stereo not given): the TGI with SW-620 colon, in the test on HCT-116 colon, in the test with SN12C renal, in the test on UACC-62 melanoma, in the test on NCI/ADR-RES ovarian and in the test with SR leukemia was greater than 100 µM throughout. Further, the TGI in the test on OVCAR-4 ovarian, in the test with SNB-75 CNS, with DU-145 prostate, in the test with UACC-257 melanoma and in the test with SK-OV-3 ovarian was greater than 100 µM each time.

As for `CCN1CCC(O)(c2ccc(Oc3ccc(Cl)cc3)cc2)C(C(=O)c2ccc(Oc3ccc(Cl)cc3)cc2)C1` (stereo not given), the TGI with SW-620 colon turned out to be 50.9 µM; in the test on ACHN renal, 28.2 µM; with HCT-116 colon, 12.6 µM; in the test on SN12C renal, 26.9 µM; with UACC-62 melanoma, 24.8 µM; with NCI/ADR-RES ovarian, 39.9 µM. Further, the TGI in the test with SR leukemia was greater than 100 µM; in the test on OVCAR-4 ovarian, 32.7 µM; in the test with SNB-75 CNS, 26.2 µM; with DU-145 prostate it was 34.3 µM; with UACC-257 melanoma, 27.1 µM; with SK-OV-3 ovarian, 38.9 µM.

On to `O=C1/C(=C/c2cccc(Cl)c2)CCCc2ccccc21`, for which the TGI with SW-620 colon stood at 33.9 µM; in the test on ACHN renal, 29.6 µM; with HCT-116 colon, 26.1 µM; in the test on SN12C renal it was 32.3 µM; in the test with UACC-62 melanoma it was 27 µM; in the test with NCI/ADR-RES ovarian, 35.9 µM. Moreover, the TGI was 35.2 µM in the test with SR leukemia; 31.4 µM in the test on OVCAR-4 ovarian; greater than 100 µM in the test with SNB-75 CNS; 40.2 µM in the test with DU-145 prostate; 46.5 µM with UACC-257 melanoma; greater than 100 µM in the test on SK-OV-3 ovarian.

With `COc1ccc(C(CC2(c3ccc(OC)cc3)SCCCS2)NC(C)=O)cc1` (stereo not given), the TGI in the test on SW-620 colon was greater than 100 µM; with ACHN renal, greater than 100 µM; in the test on HCT-116 colon, greater than 100 µM; in the test with SN12C renal, 96.8 µM; in the test on UACC-62 melanoma, greater than 100 µM; in the test with NCI/ADR-RES ovarian, 73.4 µM. The TGI with SR leukemia was greater than 100 µM; with SNB-75 CNS it was greater than 100 µM; in the test with DU-145 prostate, greater than 100 µM; in the test with UACC-257 melanoma it was 70.2 µM; in the test with SK-OV-3 ovarian, greater than 100 µM.

`CC(=O)NC1C(OC(C)C(=O)NC(C)C(=O)NC(CCC(=O)NCCCCCNc2ccc([N+](=O)[O-])c3[nH]c4ccccc4c(=O)c23)C(N)=O)C(O)C(CO)OC1(C)OCc1ccccc1` (stereo not given): the TGI with SW-620 colon, in the test with ACHN renal, in the test with HCT-116 colon, in the test with SN12C renal, in the test on UACC-62 melanoma and in the test with NCI/ADR-RES ovarian was greater than 100 µM each time. Also, the TGI in the test on SR leukemia, with OVCAR-4 ovarian, with SNB-75 CNS, in the test on DU-145 prostate, in the test on UACC-257 melanoma and in the test on SK-OV-3 ovarian was greater than 100 µM throughout.

As for `FC1(F)[Se]C2C3CCC(C3)C2C1(F)F` (stereo not given), the TGI in the test on SW-620 colon, with ACHN renal, in the test with HCT-116 colon, in the test with SN12C renal, in the test on UACC-62 melanoma and in the test on NCI/ADR-RES ovarian was greater than 100 µM throughout. Moreover, the TGI in the test with SR leukemia, in the test with OVCAR-4 ovarian, in the test on SNB-75 CNS, with DU-145 prostate and in the test on SK-OV-3 ovarian was greater than 100 µM in each case.

Regarding `CC(=O)OCCn1cnc2c(NCC=C(C)C)ncnc21`, the TGI in the test on SW-620 colon, in the test on ACHN renal, in the test with HCT-116 colon, in the test with SN12C renal, in the test with NCI/ADR-RES ovarian and in the test on SR leukemia was greater than 100 µM throughout. The TGI with OVCAR-4 ovarian, in the test with SNB-75 CNS, in the test on DU-145 prostate, in the test on UACC-257 melanoma and in the test with SK-OV-3 ovarian was greater than 100 µM throughout.

Regarding `O=C(Nc1ccccc1)c1cc(S(=O)(=O)Nc2n[nH]c(=O)n2-c2ccccc2)c(S)cc1Cl`, the TGI in the test with SW-620 colon, in the test with HCT-116 colon, in the test with SN12C renal, in the test on UACC-62 melanoma, in the test with NCI/ADR-RES ovarian and in the test on SR leukemia was greater than 100 µM throughout. For the same compound, the TGI with OVCAR-4 ovarian, in the test with SNB-75 CNS, in the test on DU-145 prostate, with UACC-257 melanoma and in the test on SK-OV-3 ovarian was greater than 100 µM each time.

`COc1cc2c(cc1OC)OC(c1c(OC)ccc(OC)c1O)CC2` (stereo not given): the TGI in the test with SW-620 colon, in the test with ACHN renal, in the test on HCT-116 colon, with UACC-62 melanoma, with NCI/ADR-RES ovarian and with SR leukemia was greater than 100 µM each time. The TGI with OVCAR-4 ovarian, in the test on SNB-75 CNS, in the test on DU-145 prostate, in the test with UACC-257 melanoma and in the test on SK-OV-3 ovarian was greater than 100 µM in each case.

On to `CCOC(=O)Cc1csc(NC(NC(=O)OCC)(C(=O)OCC)C(F)(F)F)n1` (stereo not given), for which the TGI with SW-620 colon, with ACHN renal, in the test with HCT-116 colon, in the test with SN12C renal, with NCI/ADR-RES ovarian and with SR leukemia was greater than 100 µM in each case. Besides, the TGI in the test with OVCAR-4 ovarian, in the test on SNB-75 CNS, with DU-145 prostate, in the test with UACC-257 melanoma and with SK-OV-3 ovarian was greater than 100 µM in each case.

Turning to `NC(=O)C1CCCN1C(=O)C(Cc1cnc[nH]1)NC(=O)C1CCCC1` (stereo not given), the TGI with SW-620 colon, in the test on ACHN renal, in the test on HCT-116 colon, in the test on SN12C renal, in the test on UACC-62 melanoma and with NCI/ADR-RES ovarian was greater than 100 µM each time. The TGI with SR leukemia, in the test on OVCAR-4 ovarian, with SNB-75 CNS, in the test with DU-145 prostate and in the test on SK-OV-3 ovarian was greater than 100 µM each time.

With `N#Cc1ccc(C(O)C(F)(F)c2nc3ccccc3o2)cc1` (stereo not given), the TGI in the test with SW-620 colon, in the test on ACHN renal, in the test with HCT-116 colon, in the test with UACC-62 melanoma, in the test with NCI/ADR-RES ovarian and with SR leukemia was greater than 100 µM each time. In addition, the TGI in the test on OVCAR-4 ovarian, with SNB-75 CNS, in the test with DU-145 prostate, with UACC-257 melanoma and in the test with SK-OV-3 ovarian was greater than 100 µM each time.

For the origin of these results see PubChem BioAssay (NCI).
